Laboratory results taken from ChEMBL document CHEMBL1201862, “PubChem BioAssay data set” (2004).
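In this assay, cells in 96-well plates receive the compound at five concentrations for 48 hours. Endpoints are linearly interpolated between the surrounding concentrations. GI50 is the concentration that inhibits growth by half.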 Calls of active or inactive are those of the source. No stated cut-off is given here; in the data, active = GI50 up to about 1.1 µM and inactive = higher.

Legend:
Assay in all cases: NCI anticancer screen, dose series, 48 h
SN12C = system: SN12C
RPMI-8226 = system: RPMI-8226
NCI-H23 = system: NCI-H23
HOP-62 = system: HOP-62
Malme-3M = system: Malme-3M
786-0 = system: 786-0
SNB-75 = system: SNB-75
SK-MEL-28 = system: SK-MEL-28
MOLT-4 = system: MOLT-4
HT-29 = system: HT-29
U-251 = system: U-251
SF-539 = system: SF-539
HOP-92 = system: HOP-92
OVCAR-5 = system: OVCAR-5
M14 = system: M14
SF-295 = system: SF-295
K562 = system: K562
OVCAR-8 = system: OVCAR-8
UO-31 = system: UO-31
IGROV-1 = system: IGROV-1

Measured: GI50

CCOC(=O)/C(=C\c1ccc[nH]1)C(=O)c1ccccc1
inactive: SN12C > 100 µM | RPMI-8226 82 µM | NCI-H23 > 100 µM | HOP-62 > 100 µM | Malme-3M > 100 µM | 786-0 > 100 µM | SNB-75 13.9 µM | SK-MEL-28 > 100 µM | MOLT-4 43.3 µM | HT-29 > 100 µM | U-251 > 100 µM | SF-539 > 100 µM | HOP-92 22.6 µM | OVCAR-5 > 100 µM | M14 > 100 µM | SF-295 > 100 µM | K562 35.2 µM | OVCAR-8 > 100 µM | UO-31 > 100 µM

COC1=C2CC(C)CC(OC)C(O)C(C)/C=C(\C)C(OC(N)=O)C(OC)/C=C\C=C(/C)C(=O)NC(=C(/C=N/N3CCCCC3)C1=O)C2=O (configuration not stated)
inactive: IGROV-1 5.5 µM | SN12C 4.5 µM | RPMI-8226 5.55 µM | NCI-H23 15.8 µM | HOP-62 18.3 µM | Malme-3M 15.2 µM | 786-0 10.2 µM | SNB-75 17.8 µM | SK-MEL-28 18.7 µM | MOLT-4 2.62 µM | HT-29 6.55 µM | U-251 6.4 µM | SF-539 7.33 µM | HOP-92 15.7 µM | OVCAR-5 19.4 µM | M14 18.7 µM | SF-295 13.5 µM | K562 5.4 µM | OVCAR-8 3.83 µM | UO-31 10.8 µM

NC(CCC(=O)O)C(=O)NC(Cc1ccc(N(CCCl)CCCl)cc1)C(=O)O (configuration not stated)
inactive: IGROV-1 > 100 µM | SN12C > 100 µM | RPMI-8226 > 100 µM | NCI-H23 > 100 µM | HOP-62 > 100 µM | Malme-3M > 100 µM | 786-0 > 100 µM | SNB-75 > 100 µM | SK-MEL-28 > 100 µM | MOLT-4 > 100 µM | HT-29 > 100 µM | U-251 > 100 µM | SF-539 > 100 µM | HOP-92 > 100 µM | OVCAR-5 > 100 µM | M14 > 100 µM | SF-295 > 100 µM | K562 > 100 µM | OVCAR-8 > 100 µM | UO-31 > 100 µM

Nc1nc(Cl)cc(NCC2(CO)CCCCC2)n1
inactive: IGROV-1 > 100 µM | SN12C 81.1 µM | RPMI-8226 97.5 µM | NCI-H23 48.9 µM | HOP-62 > 100 µM | Malme-3M > 100 µM | 786-0 > 100 µM | SNB-75 > 100 µM | SK-MEL-28 > 100 µM | MOLT-4 59.4 µM | HT-29 > 100 µM | U-251 > 100 µM | SF-539 > 100 µM | HOP-92 56.9 µM | OVCAR-5 > 100 µM | M14 > 100 µM | SF-295 > 100 µM | K562 94 µM | OVCAR-8 > 100 µM | UO-31 > 100 µM

COc1ccc(C2[C@H]3C(=O)N(c4ccc(Cc5ccc(N6C(=O)[C@@H]7ON(c8ccccc8)C(c8ccc(OC)cc8)[C@@H]7C6=O)cc5)cc4)C(=O)[C@H]3ON2c2ccccc2)cc1 (some centres not stated)
inactive: IGROV-1 > 100 µM | SN12C > 100 µM | RPMI-8226 > 100 µM | NCI-H23 > 100 µM | HOP-62 > 100 µM | Malme-3M 87.5 µM | 786-0 > 100 µM | SNB-75 > 100 µM | SK-MEL-28 > 100 µM | MOLT-4 > 100 µM | HT-29 > 100 µM | U-251 > 100 µM | SF-539 > 100 µM | HOP-92 49.2 µM | OVCAR-5 > 100 µM | M14 23.1 µM | SF-295 > 100 µM | K562 > 100 µM | OVCAR-8 > 100 µM | UO-31 > 100 µM

Oc1nc2nnc(COc3ccc(Cl)cc3Cl)n2nc1Cc1ccccc1
inactive: IGROV-1 24.2 µM | SN12C 57.1 µM | RPMI-8226 > 100 µM | NCI-H23 43 µM | HOP-62 47.2 µM | Malme-3M > 100 µM | 786-0 20.8 µM | SNB-75 16 µM | SK-MEL-28 > 100 µM | MOLT-4 > 100 µM | HT-29 > 100 µM | U-251 23.8 µM | SF-539 20.1 µM | HOP-92 32.7 µM | OVCAR-5 > 100 µM | M14 > 100 µM | SF-295 32.3 µM | K562 > 100 µM | OVCAR-8 26.1 µM | UO-31 24.2 µM

Cc1nc(-c2nc(C)c(C(=O)/C=C/c3ccc([N+](=O)[O-])cc3)s2)sc1C(=O)/C=C/c1ccc([N+](=O)[O-])cc1
inactive: IGROV-1 > 100 µM | SN12C > 100 µM | RPMI-8226 > 100 µM | NCI-H23 > 100 µM | HOP-62 > 100 µM | Malme-3M > 100 µM | 786-0 > 100 µM | SNB-75 > 100 µM | SK-MEL-28 > 100 µM | MOLT-4 > 100 µM | HT-29 > 100 µM | U-251 > 100 µM | SF-539 > 100 µM | HOP-92 > 100 µM | OVCAR-5 > 100 µM | M14 > 100 µM | SF-295 > 100 µM | K562 > 100 µM | OVCAR-8 > 100 µM | UO-31 > 100 µM

Cc1ccc(C2=NN(C)COC2C(F)(F)F)cc1 (configuration not stated)
inactive: IGROV-1 > 100 µM | SN12C > 100 µM | RPMI-8226 > 100 µM | NCI-H23 > 100 µM | HOP-62 > 100 µM | Malme-3M > 100 µM | 786-0 > 100 µM | SNB-75 21.2 µM | SK-MEL-28 > 100 µM | MOLT-4 > 100 µM | HT-29 > 100 µM | U-251 > 100 µM | SF-539 > 100 µM | HOP-92 > 100 µM | OVCAR-5 > 100 µM | M14 > 100 µM | SF-295 > 100 µM | K562 > 100 µM | OVCAR-8 > 100 µM | UO-31 > 100 µM

CCOC(=O)c1c(-c2ccc(OC)cc2)c(C#N)c(=S)n(C2OC(CO)C(O)C(O)C2O)c1-c1ccccc1 (configuration not stated)
inactive: IGROV-1 59.6 µM | SN12C 42.7 µM | RPMI-8226 46.9 µM | NCI-H23 31.8 µM | HOP-62 25.4 µM | Malme-3M 73.5 µM | 786-0 48.2 µM | SNB-75 78.7 µM | SK-MEL-28 50.4 µM | MOLT-4 30.7 µM | HT-29 40.6 µM | U-251 47.1 µM | SF-539 38.1 µM | HOP-92 6.85 µM | OVCAR-5 > 100 µM | M14 31.9 µM | SF-295 44.9 µM | K562 34.4 µM | UO-31 51.5 µM

CCOP(=O)(OCC)C(C)(CC)N/C(=N\C1=NC(C(F)(F)F)(C(F)(F)F)N=C(C(F)(F)F)O1)NC(NC(C)=O)(C(F)(F)F)C(F)(F)F (configuration not stated)
inactive: IGROV-1 51.2 µM | SN12C 34.1 µM | RPMI-8226 24.2 µM | NCI-H23 18.2 µM | HOP-62 36.1 µM | Malme-3M 22.1 µM | 786-0 37.3 µM | SNB-75 2.3 µM | SK-MEL-28 > 100 µM | MOLT-4 13.2 µM | HT-29 20.7 µM | U-251 31 µM | SF-539 40.2 µM | HOP-92 9.95 µM | OVCAR-5 45 µM | M14 22.9 µM | SF-295 18 µM | K562 16.9 µM | OVCAR-8 36.6 µM
